This is an account of results in US20240115745A1, “COMPOUNDS COMPRISING A FIBROBLAST ACTIVATION PROTEIN LIGAND AND USE THEREOF” (3B PHARMACEUTICALS GMBH, priority 2021, published 2024).

Assay [1] addresses T1, FAP-expressing human WI-38 fibroblasts (Homo sapiens, UniProt Q12884).
T1 construct: FAP-expressing human WI-38 fibroblasts (ECACC) were cultured in EMEM; host or cells: WI-38 human fibroblasts
Kind of assay: Competitive FACS binding assay. (A flow cytometer gives signals particle by particle.)

The target in another assay is T2, Recombinant human FAP (Homo sapiens, UniProt Q12884).
T2 construct: purchased R&D systems 3715-SE
T2 sequence (Q12884 26-760 limits assumed): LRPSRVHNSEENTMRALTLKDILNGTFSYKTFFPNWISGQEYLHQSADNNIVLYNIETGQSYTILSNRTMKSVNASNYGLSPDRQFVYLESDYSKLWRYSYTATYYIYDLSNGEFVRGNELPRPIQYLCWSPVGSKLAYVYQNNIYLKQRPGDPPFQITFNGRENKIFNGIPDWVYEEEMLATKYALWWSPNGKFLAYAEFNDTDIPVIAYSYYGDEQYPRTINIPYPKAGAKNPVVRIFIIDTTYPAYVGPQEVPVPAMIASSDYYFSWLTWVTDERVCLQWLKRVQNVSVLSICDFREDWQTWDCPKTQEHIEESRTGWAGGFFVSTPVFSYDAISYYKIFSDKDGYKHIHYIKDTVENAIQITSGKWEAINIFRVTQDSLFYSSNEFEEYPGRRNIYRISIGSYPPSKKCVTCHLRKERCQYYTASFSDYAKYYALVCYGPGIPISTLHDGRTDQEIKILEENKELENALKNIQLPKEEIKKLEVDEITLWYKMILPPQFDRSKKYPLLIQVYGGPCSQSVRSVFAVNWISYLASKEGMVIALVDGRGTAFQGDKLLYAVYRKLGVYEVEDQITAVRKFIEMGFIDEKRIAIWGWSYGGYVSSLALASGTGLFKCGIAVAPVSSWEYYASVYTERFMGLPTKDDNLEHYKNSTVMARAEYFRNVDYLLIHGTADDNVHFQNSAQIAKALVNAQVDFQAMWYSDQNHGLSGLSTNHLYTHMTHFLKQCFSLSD
Kind of assay: FRET-based FAP protease activity assay. Type of assay: biochemical.

Setting [2] is: competition with 3 nM Cy5-labeled compound, WI-38 fibroblasts, 4° C., 1 hour, read-out: pIC50 Category (FACS) (converted).
The mark [3] stands for this setting: recombinant human FAP, FRET-peptide substrate, 37° C., read-out: pIC50 Category (Activity) (converted).

Like-named read-outs stand apart in the source and are kept apart here. *1 amine or outer side, *2 acyl side, *3 side chain or, on linkers, in order; H or OH if unused. Where a SMILES comes first, the peptide text is derived from it. Bridges are numbered along the chain shown (N, C = ends). [ ]: non-standard residue; d: D form. The star is where a group is joined. X4 = O=C(O)CN1CCN(CC(=O)O)CCN(CC(=O)NCCCOCCOCCOCCCN*)CCN(CC(=O)O)CC1; Suc = O=C(CCC(=O)[*:2])[*:1]; 4Amb = NCc1ccc(C(=O)O)cc1; Nle = CCCC[C@H](N)C(=O)O
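Wherever pIC50 (highest activity categories, FACS binding) is given: flow cytometry read-out of median Cy5 fluorescence on the cells, plotted versus test compound concentration, with IC50 derived by four-parameter logistic curve fitting.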
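Wherever pIC50 Category (FACS) is given: flow cytometry read-out of median Cy5 fluorescence on the cells, plotted versus test compound concentration, with IC50 derived by four-parameter logistic curve fitting.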

T1 sequence (Q12884 whole entry): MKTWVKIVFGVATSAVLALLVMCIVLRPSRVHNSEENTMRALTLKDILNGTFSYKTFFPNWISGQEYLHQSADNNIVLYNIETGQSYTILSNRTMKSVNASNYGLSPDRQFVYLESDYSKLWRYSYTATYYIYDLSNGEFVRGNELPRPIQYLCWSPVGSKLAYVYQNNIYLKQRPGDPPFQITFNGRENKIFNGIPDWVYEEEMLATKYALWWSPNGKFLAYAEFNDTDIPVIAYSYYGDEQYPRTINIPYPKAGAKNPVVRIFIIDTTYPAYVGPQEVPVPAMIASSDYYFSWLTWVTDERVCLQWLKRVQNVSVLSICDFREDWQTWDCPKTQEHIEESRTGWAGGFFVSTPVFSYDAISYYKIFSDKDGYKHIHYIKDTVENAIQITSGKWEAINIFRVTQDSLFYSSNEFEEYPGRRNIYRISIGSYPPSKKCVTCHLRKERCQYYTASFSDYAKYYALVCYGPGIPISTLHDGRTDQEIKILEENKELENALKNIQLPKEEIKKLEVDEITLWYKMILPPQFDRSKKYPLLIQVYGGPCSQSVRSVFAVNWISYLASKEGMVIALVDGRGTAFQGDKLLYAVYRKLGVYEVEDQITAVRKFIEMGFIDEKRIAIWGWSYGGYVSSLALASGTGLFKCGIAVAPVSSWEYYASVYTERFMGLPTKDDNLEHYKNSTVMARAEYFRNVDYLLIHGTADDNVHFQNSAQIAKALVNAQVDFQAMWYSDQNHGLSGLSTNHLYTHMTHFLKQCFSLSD

As to `CSCC[C@H](N)C(=O)N[C@H]1CSSC[C@@H](C(=O)N[C@@H](CC(=O)O)C(=O)N[C@@H](Cc2c[nH]cn2)C(=O)N[C@@H](Cc2ccccc2)C(=O)N[C@@H](CCCNC(=N)N)C(=O)N[C@@H](CC(=O)O)C(N)=O)NC(=O)[C@H](Cc2ccccc2)NC(=O)[C@H](CCC(=O)O)NC(=O)[C@H]([C@@H](C)O)NC(=O)[C@@H]2CCCN2C(=O)[C@@H]2CCCN2C1=O` [Compound 1001, H-Met-[Cys-Pro-Pro-Thr-Glu-Phe-Cys]-Asp-His-Phe-Arg-Asp-NH2] (HELM PEPTIDE1{M.C.P.P.T.E.F.C.D.H.F.R.D.[am]}$PEPTIDE1,PEPTIDE1,2:R3-8:R3$$$V2.0), the IC50 (in assay [1] (setting [2]); at Recombinant human FAP (setting [3])) was below 100 nM throughout.

Turning to `CCCCCC(=O)N[C@H]1CSSC[C@@H](C(=O)N[C@@H](CC(=O)O)C(=O)N[C@@H](Cc2c[nH]cn2)C(=O)N[C@@H](Cc2ccccc2)C(=O)N[C@@H](CCCNC(=N)N)C(=O)N[C@@H](CC(=O)O)C(N)=O)NC(=O)[C@H](Cc2ccccc2)NC(=O)[C@H](CCC(=O)O)NC(=O)[C@H]([C@@H](C)O)NC(=O)[C@@H]2CCCN2C(=O)[C@@H]2CCCN2C1=O` [Compound 1002, Hex-[Cys-Pro-Pro-Thr-Glu-Phe-Cys]-Asp-His-Phe-Arg-Asp-NH2] (HELM PEPTIDE1{[CCCCCC(=O)[*:2]].C.P.P.T.E.F.C.D.H.F.R.D.[am]}$PEPTIDE1,PEPTIDE1,2:R3-8:R3$$$V2.0), the IC50 (in assay [1] (setting [2]); at Recombinant human FAP (setting [3])) was below 100 nM in each case.

Turning to `CCCC[C@H](NC(=O)CCC(=O)NCCCOCCOCCOCCCNC(=O)CN1CCN(CC(=O)O)CCN(CC(=O)O)CCN(CC(=O)O)CC1)C(=O)N[C@H]1CSSC[C@@H](C(=O)N[C@@H](CC(=O)O)C(N)=O)NC(=O)[C@H](Cc2ccccc2)NC(=O)[C@H](CCC(=O)O)NC(=O)[C@H]([C@@H](C)O)NC(=O)[C@@H]2CCCN2C(=O)[C@@H]2CCCN2C1=O` [Compound 1003, DOTA-Ttds-Nle-[Cys-Pro-Pro-Thr-Glu-Phe-Cys]-Asp-NH2] ({X4-Suc}-[Nle]CPPTEFCD-NH2; disulfide 2-8), the IC50 (in assay [1] (setting [2]); at Recombinant human FAP (setting [3])) was below 100 nM each time.

On to `CCCC[C@H](NC(=O)CN1CCN(CC(=O)O)CCN(CC(=O)O)CCN(CC(=O)O)CC1)C(=O)N[C@H]1CSSC[C@@H](C(=O)N[C@@H](CC(=O)O)C(N)=O)NC(=O)[C@H](Cc2ccccc2)NC(=O)[C@H](CCC(=O)O)NC(=O)[C@H]([C@@H](C)O)NC(=O)[C@@H]2CCCN2C(=O)[C@@H]2CCCN2C1=O` [Compound 1004, DOTA-Nle-[Cys-Pro-Pro-Thr-Glu-Phe-Cys]-Asp-NHd2] (HELM PEPTIDE1{[O=C(O)CN1CCN(CC(=O)O)CCN(CC(=O)[*:2])CCN(CC(=O)O)CC1].[Nle].C.P.P.T.E.F.C.D.[am]}$PEPTIDE1,PEPTIDE1,3:R3-9:R3$$$V2.0), for which the IC50 (in assay [1] (setting [2]); at Recombinant human FAP (setting [3])) was below 100 nM in each case.

For `CCCC[C@H](NC(=O)COCCOCCNC(=O)CN1CCN(CC(=O)O)CCN(CC(=O)O)CCN(CC(=O)O)CC1)C(=O)N[C@H]1CSSC[C@@H](C(=O)N[C@@H](CC(=O)O)C(=O)N[C@@H](Cc2c[nH]cn2)C(=O)N[C@@H](Cc2ccccc2)C(=O)N[C@@H](CCCNC(=N)N)C(=O)N[C@@H](CC(=O)O)C(N)=O)NC(=O)[C@H](Cc2ccccc2)NC(=O)[C@H](CCC(=O)O)NC(=O)[C@H]([C@@H](C)O)NC(=O)[C@@H]2CCCN2C(=O)[C@@H]2CCCN2C1=O` [Compound 1005, DOTA-O2Oc-Nle-[Cys-Pro-Pro-Thr-Glu-Phe-Cys]-Asp-His-Phe-Arg-Asp-NH2] (HELM PEPTIDE1{[O=C(O)CN1CCN(CC(=O)O)CCN(CC(=O)[*:2])CCN(CC(=O)O)CC1].[O=C(COCCOCCN[*:1])[*:2]].[Nle].C.P.P.T.E.F.C.D.H.F.R.D.[am]}$PEPTIDE1,PEPTIDE1,4:R3-10:R3$$$V2.0), the IC50 in assay [1] (setting [2]) is below 100 nM; in assay [1] (read-out: pIC50 (highest activity categories, FACS binding) (converted)) it was below 100 nM; on Recombinant human FAP (read-out: pIC50 (highest activity categories, FAP activity) (converted)), below 100 nM; at Recombinant human FAP (setting [3]), below 100 nM.

For `CCCC[C@H](NC(=O)CCC(=O)NCCCOCCOCCOCCCNC(=O)CN1CCN(CC(=O)O)CCN(CC(=O)O)CCN(CC(=O)O)CC1)C(=O)N[C@H]1CSSC[C@@H](C(=O)N[C@@H](CC(=O)O)C(=O)N[C@@H](Cc2c[nH]cn2)C(=O)N[C@@H](Cc2ccccc2)C(=O)N[C@@H](CCCNC(=N)N)C(=O)N[C@@H](CC(=O)O)C(N)=O)NC(=O)[C@H](Cc2ccccc2)NC(=O)[C@H](CCC(=O)O)NC(=O)[C@H]([C@@H](C)O)NC(=O)[C@@H]2CCCN2C(=O)[C@@H]2CCCN2C1=O` [Compound 1006, DOTA-Ttds-Nle-[Cys-Pro-Pro-Thr-Glu-Phe-Cys]-Asp-His-Phe-Arg-Asp-NH2] ({X4-Suc}-[Nle]CPPTEFCDHFRD-NH2; disulfide 2-8), the IC50 (in assay [1] (setting [2]); at Recombinant human FAP (setting [3])) was below 100 nM throughout.

Take `CCCC[C@H](NC(=O)CCC(=O)NCCCOCCOCCOCCCNC(=O)CN1CCN(CC(=O)O)CCN(CC(=O)O)CCN(CC(=O)O)CC1)C(=O)N[C@H]1CSSC[C@@H](C(=O)N[C@@H](CC(=O)O)C(=O)NCc2ccc(C(=O)N[C@@H](CCCNC(=N)N)C(N)=O)cc2)NC(=O)[C@H](Cc2ccccc2)NC(=O)[C@H](CCC(=O)O)NC(=O)[C@H]([C@@H](C)O)NC(=O)[C@@H]2CCCN2C(=O)[C@@H]2CCCN2C1=O` [Compound 1007, DOTA-Ttds-Nle-[Cys-Pro-Pro-Thr-Glu-Phe-Cys]-Asp-Pamb-Arg-NH2] ({X4-Suc}-[Nle]CPPTEFCD[4Amb]R-NH2; disulfide 2-8): the IC50 (in assay [1] (setting [2]); at Recombinant human FAP (setting [3])) was below 100 nM in each case.

Regarding `CCCC[C@H](NC(=O)CCC(=O)NCCCOCCOCCOCCCNC(=O)CN1CCN(CC(=O)O)CCN(CC(=O)O)CCN(CC(=O)O)CC1)C(=O)N[C@H]1CSSC[C@@H](C(=O)N[C@@H](CC(=O)O)C(N)=O)NC(=O)[C@H](Cc2ccccc2)NC(=O)[C@H](CCC(N)=O)NC(=O)[C@H]([C@@H](C)O)NC(=O)[C@@H]2CCCN2C(=O)[C@@H]2CCCN2C1=O` [Compound 1008, DOTA-Ttds-Nle-[Cys-Pro-Pro-Thr-Gln-Phe-Cys]-Asp-NH2] ({X4-Suc}-[Nle]CPPTQFCD-NH2; disulfide 2-8), the IC50 (in assay [1] (setting [2]); at Recombinant human FAP (setting [3])) was below 100 nM each time.

Turning to `CCCC[C@H](NC(=O)CCC(=O)NCCCOCCOCCOCCCNC(=O)CN1CCN(CC(=O)O)CCN(CC(=O)O)CCN(CC(=O)O)CC1)C(=O)N[C@H]1CSSC[C@@H](C(=O)O)NC(=O)[C@H](Cc2ccccc2)NC(=O)[C@H](CCC(N)=O)NC(=O)[C@H]([C@@H](C)O)NC(=O)[C@@H]2CCCN2C(=O)[C@@H]2CCCN2C1=O` [Compound 1009, DOTA-Ttds-Nle-[Cys-Pro-Pro-Thr-Gln-Phe-Cys]-OH], the IC50 (in assay [1] (setting [2]); at Recombinant human FAP (setting [3])) was below 100 nM each time.

Turning to `CCCC[C@H](NC(=O)CCC(=O)NCCCOCCOCCOCCCNC(=O)CN1CCN(CC(=O)O)CCN(CC(=O)O)CCN(CC(=O)O)CC1)C(=O)N[C@H]1CSSC[C@@H](C(=O)NCCC(=O)O)NC(=O)[C@H](Cc2ccccc2)NC(=O)[C@H](CCC(N)=O)NC(=O)[C@H]([C@@H](C)O)NC(=O)[C@@H]2CCCN2C(=O)[C@@H]2CCCN2C1=O` [Compound 1010, DOTA-Ttds-Nle-[Cys-Pro-Pro-Thr-Gln-Phe-Cys]-Bal-OH], the IC50 (in assay [1] (setting [2]); at Recombinant human FAP (setting [3])) was below 100 nM each time.

For the compound `CCCCCC(=O)N[C@H]1CSSC[C@@H](C(=O)N[C@@H](CCCCNC(=O)CN2CCN(CC(=O)O)CCN(CC(=O)O)CCN(CC(=O)O)CC2)CC(=O)O)NC(=O)[C@H](Cc2ccccc2)NC(=O)[C@H](CCC(N)=O)NC(=O)[C@H]([C@@H](C)O)NC(=O)[C@@H]2CCCN2C(=O)[C@@H]2CCCN2C1=O` [Compound 1011, Hex-[Cys-Pro-Pro-Thr-Gln-Phe-Cys]-Bhk(DOTA)-OH], the IC50 (in assay [1] (setting [2]); at Recombinant human FAP (setting [3])) was below 100 nM in each case.
